Reference: the supplement of paper PMC10307832

Legend:
Test in all cases: relative viability (nuclei count vs DMSO), 5 days (fraction); higher = more cells survive
Carfilzomib + Foretinib = compound: CC(C)C[C@H](NC(=O)[C@H](CCc1ccccc1)NC(=O)CN1CCOCC1)C(=O)N[C@@H](Cc1ccccc1)C(=O)N[C@@H](CC(C)C)C(=O)[C@@]1(C)CO1 [Carfilzomib] + COc1cc2c(Oc3ccc(NC(=O)C4(C(=O)Nc5ccc(F)cc5)CC4)cc3F)ccnc2cc1OCCCN1CCOCC1 [Foretinib] (partner 0.25 µM)
Summary of the method: (§1)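 After 5 days of treatment, lung cancer cells in 1536-well plates were fixed and stained in a single step (final 0.05% Triton X-100, 1% formaldehyde, 1 ug/ml Hoechst) and their nuclei counted on 4× images. Treatment had been applied by pin tool the day after seeding as one drug alone or as a fixed anchor-drug dose with five library-drug doses (not always all listed) in √10 steps. Relative viability is the nuclei count of treated wells divided by that of vehicle wells, and values are medians of duplicate plates.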

Carfilzomib + Pictilisib = compound: CC(C)C[C@H](NC(=O)[C@H](CCc1ccccc1)NC(=O)CN1CCOCC1)C(=O)N[C@@H](Cc1ccccc1)C(=O)N[C@@H](CC(C)C)C(=O)[C@@]1(C)CO1 [Carfilzomib] + CS(=O)(=O)N1CCN(Cc2cc3nc(-c4cccc5[nH]ncc45)nc(N4CCOCC4)c3s2)CC1 [Pictilisib] (partner 1 µM)
Summary of the method: as §1

Crizotinib + Navitoclax = compound: C[C@@H](Oc1cc(-c2cnn(C3CCNCC3)c2)cnc1N)c1c(Cl)ccc(F)c1Cl [Crizotinib] + CC1(C)CCC(c2ccc(Cl)cc2)=C(CN2CCN(c3ccc(C(=O)NS(=O)(=O)c4ccc(N[C@H](CCN5CCOCC5)CSc5ccccc5)c(S(=O)(=O)C(F)(F)F)c4)cc3)CC2)C1 [Navitoclax] (partner 0.5 µM)
Summary of the method: as §1

Crizotinib + Foretinib = compound: C[C@@H](Oc1cc(-c2cnn(C3CCNCC3)c2)cnc1N)c1c(Cl)ccc(F)c1Cl [Crizotinib] + COc1cc2c(Oc3ccc(NC(=O)C4(C(=O)Nc5ccc(F)cc5)CC4)cc3F)ccnc2cc1OCCCN1CCOCC1 [Foretinib] (partner 0.25 µM)
Summary of the method: as §1

Row | Cell Line | relative viability (Carfilzomib + Foretinib; first compound 0.001 µM) | relative viability (Carfilzomib + Foretinib; first compound 0.003162 µM) | relative viability (Carfilzomib + Foretinib; first compound 0.01 µM) | relative viability (Carfilzomib + Foretinib; first compound 0.03162 µM) | relative viability (Carfilzomib + Foretinib; first compound 0.1 µM) | relative viability (Carfilzomib + Pictilisib; first compound 0.001 µM) | relative viability (Carfilzomib + Pictilisib; first compound 0.003162 µM) | relative viability (Carfilzomib + Pictilisib; first compound 0.01 µM) | relative viability (Carfilzomib + Pictilisib; first compound 0.03162 µM) | relative viability (Carfilzomib + Pictilisib; first compound 0.1 µM) | relative viability (Crizotinib + Navitoclax; first compound 0.01 µM) | relative viability (Crizotinib + Navitoclax; first compound 0.03162 µM) | relative viability (Crizotinib + Navitoclax; first compound 0.1 µM) | relative viability (Crizotinib + Navitoclax; first compound 0.3162 µM) | relative viability (Crizotinib + Navitoclax; first compound 1 µM) | relative viability (Crizotinib + Foretinib; first compound 0.01 µM) | relative viability (Crizotinib + Foretinib; first compound 0.03162 µM) | relative viability (Crizotinib + Foretinib; first compound 0.1 µM) | relative viability (Crizotinib + Foretinib; first compound 0.3162 µM) | relative viability (Crizotinib + Foretinib; first compound 1 µM)
1 | LU99A | 0.943 | 0.772 | 0.847 | 0.565 | 0.246 | 0.349 | 0.341 | 0.331 | 0.238 | 0.151 | 0.801 | 0.743 | 0.826 | 0.721 | 0.786 | 0.74 | 0.781 | 0.812 | 0.788 | 0.766
2 | LXF-289 | 1 | 0.945 | 0.948 | 0.464 | 0.0789 | 0.753 | 0.776 | 0.644 | 0.0604 | 0.0625 | 0.856 | 0.931 | – | 0.879 | 0.939 | 0.864 | 1 | 1.01 | 0.914 | 0.954
3 | NCI-H23 | 0.873 | 1.11 | 1.09 | 0.188 | 0.134 | 0.469 | 0.551 | 0.436 | 0.159 | 0.122 | 0.85 | 0.738 | 0.688 | – | 0.816 | 0.998 | 0.905 | 1.01 | – | 0.936
4 | NCI-H322M | 0.981 | 1.01 | 0.999 | 0.943 | 0.359 | 0.491 | 0.507 | 0.567 | 0.538 | 0.307 | 1.07 | 1.12 | 1.19 | 1.13 | 1.3 | 0.852 | 1.04 | 0.947 | 1.09 | 0.889
5 | NCI-H441 | 0.878 | 0.977 | 0.61 | 0.199 | 0.349 | 0.486 | 0.569 | 0.144 | 0.105 | 0.141 | 0.959 | 0.571 | 0.682 | – | 0.798 | – | 0.958 | 0.931 | – | 0.825
6 | NCI-H460 | 0.97 | 1.05 | 0.988 | 0.75 | 0.0297 | 0.438 | 0.376 | 0.381 | 0.0673 | 0.0409 | – | 1.03 | 1.1 | 1.2 | 1.13 | 0.801 | 1.05 | 0.996 | 1.02 | 1.07
7 | NCI-H520 | 0.781 | 0.999 | 0.695 | 0.17 | 0.203 | 0.263 | 0.246 | 0.222 | 0.176 | 0.186 | 1.01 | 1.05 | 1.31 | – | 1.12 | 0.757 | 0.827 | 0.804 | – | 0.538
